Experimental data reported in patent US3998811A, “Optically active 1,4-benzodiazepines and process for the preparation thereof” (CRC Compagnia di Recerca Chimica S.A., priority 1971, dated 1976).

Legend:
[1] = system: mice; experiment: Anticonvulsant effect against pentylene tetrazole shock, mice; assay type: in vivo; conditions: relative to chlordiazepoxide = 1.00, larger value = less effective
Procedure: (§1) The pharmacalogical activity of the novel compounds of this invention was evaluated by standard methods such as the anticonvulsant effect against pentylene tetrazole shock and maximal and minimal electroshock, muscle relaxing ability, the fighting test, and hypnotic effect. These standard test are described in detail in the literature, for example, in L. O. Randall, C. L. Schenkel, R. F. Banziger, Curr. Ther. Res., Clin. Exp., 590 (1965), and M. I. Gluckman, Curr. Ther. Res., Clin. Exp., 7,721 (1965).
(§2) This Example illustrates the pharmacological effectiveness of the compounds of this invention. A number of the compounds of this invention were tested for their pharmacological effect on the CNS by the procedures described above. Also tested were the corresponding racemic mixtures and three commercial tranquillizers:
(§3) The results of the tests are shown in Table IV wherein the relative potencies compared with that of chlordiazepoxide which is assigned an activity of 1.00. […] It can also be seen that the pharmaceutically active compounds of this invention compare favorably with some commercially useful tranquillizers and even surpass them in some respects.

[2] = system: mice; experiment: Anticonvulsant effect against maximal electroshock, mice; assay type: in vivo; conditions: relative to chlordiazepoxide = 1.00, larger value = less effective
Procedure: as §1, §2, §3

[3] = system: mice; experiment: Anticonvulsant effect against minimal electroshock, mice; assay type: in vivo; conditions: relative to chlordiazepoxide = 1.00, larger value = less effective
Procedure: as §1, §2, §3

[4] = system: mice; experiment: Muscle relaxation (muscle relaxing ability), mice; assay type: in vivo; conditions: relative to chlordiazepoxide = 1.00, larger value = less effective
Procedure: as §1, §2, §3

[5] = system: mice; experiment: Fighting test, mice; assay type: in vivo; conditions: relative to chlordiazepoxide = 1.00, larger value = less effective
Procedure: as §1, §2, §3

[6] = system: mice; experiment: Hypnotic effect, mice; assay type: in vivo; conditions: relative to chlordiazepoxide = 1.00, larger value = less effective
Procedure: as §1, §2, §3

[7] = S- form; cited from earlier work
[8] = LD 50 P.O., mice; conditions: mouse, in vivo, po
[9] = system: experimental animals; conditions: R- form; even at low dosages; cited from earlier work

| SMILES | Relative potency, anticonvulsant effect, pentylene tetrazole [1] | Relative potency, anticonvulsant effect, maximal electro shock [2] | Relative potency, anticonvulsant effect, minimal electro shock [3] | Relative potency, muscle relaxation [4] | Relative potency, fighting test [5] | Relative potency, hypnotic effect [6] | known pharmacological action [7] | LD50 [8] [mg/kg] | known adverse effect in experimental animals [9] |
| --- | --- | --- | --- | --- | --- | --- | --- | --- | --- |
| O=C1Nc2ccc(Cl)cc2C(c2ccccc2)=NC1Cc1ccc(O)cc1 (racemic) [22 (Rac.)] | 75.6 | 65.40 | 16.70 | 46.20 | 56.30 | 18.60 |  |  |  |
| CC(C)C1N=C(c2ccccc2)c2cc(Cl)ccc2NC1=O (racemic) [25 (Rac.)] | 20.4 | 20.30 | 4.70 | 8.60 | 9.30 | 4.20 |  |  |  |
| O=C1Nc2ccc(Cl)cc2C(c2ccccc2)=NC1Cc1ccccc1 (racemic) [21 (Rac.)] | 40.50 | 10.30 | 20.60 | 40.70 | 45.8 | 10.70 |  |  |  |
| CC[C@@H](CO)NCCN[C@@H](CC)CO [S- form of Ethambutole, Ethambutole] |  |  |  |  |  |  | anti-tuberculous agent |  |  |
| C[C@@H](O)[C@@H]1N=C(c2ccccc2)c2cc(Cl)ccc2NC1=O [24 (S)] | 10.30 | 1.30 | 0.45 | 0.62 | 1.70 | 0.51 |  | 6000 |  |
| CN1C(=O)C(OCC(O)CO)N=C(c2ccccc2)c2cc(Cl)ccc21 (racemic) [31 (Rac.)] | 105.4 | 4.72 | 2.30 | 9.60 | 8.74 | 2.30 |  |  |  |
| CC(O)C1N=C(c2ccccc2)c2cc(Cl)ccc2NC1=O (racemic) [24 (Rac.)] | 105.60 | 12.60 | 3.27 | 5.42 | 16.30 | 3.20 |  |  |  |
| CC1N=C(c2ccccc2)c2cc(Cl)ccc2NC1=O (racemic) [20 (Rac.)] | 30.40 | 8.20 | 5.00 | 9.60 | 10.4 | 2.30 |  |  |  |
| O=C1Nc2ccc(Cl)cc2C(c2ccccc2)=N[C@H]1Cc1ccccc1 [21 (S)] | 5.30 | 4.82 | 2.30 | 4.10 | 4.50 | 2.10 |  | 1600 |  |
| O=C1Nc2ccc(Cl)cc2C(c2ccccc2)=NC1Cc1c[nH]c2ccccc12 (racemic) [23 (Rac.)] | 30.60 | 38.70 | 14.60 | 60.50 | 80.30 | 8.30 |  |  |  |
| C[C@@H]1N=C(c2ccccc2)c2cc(Cl)ccc2N(C)C1=O [26 (S)] | 5.80 | 0.90 | 0.10 | 0.70 | 1.00 | 0.80 |  | 2600 |  |
| CC(C)[C@@H]1N=C(c2ccccc2)c2cc(Cl)ccc2NC1=O [25 (S)] | 1.80 | 1.75 | 0.30 | 1.15 | 1.40 | 0.80 |  | 1850 |  |
| CN1CCN=C(c2ccccc2)c2cc(Cl)ccc21 [Medazepam, 7-chloro-5-phenyl-1-methyl-1,2-dihydro-3H-1,4-benzodiazepine] | 6.2 | 1.03 | 0.32 | 1.3 | 1.0 | 0.30 |  | 1420 |  |
| C[C@@H]1N=C(c2ccccc2)c2cc(Cl)ccc2NC1=O [20 (S)] | 4.1 | 1.32 | 0.20 | 1.0 | 1.0 | 0.4 |  | 2300 |  |
| O=C1Nc2ccc(Cl)cc2C(c2ccccc2)=N[C@H]1Cc1ccc(O)cc1 [22 (S)] | 7.3 | 6.30 | 1.42 | 4.30 | 5.70 | 4.20 |  | 1850 |  |
| CC[C@H](CO)NCCN[C@H](CC)CO [R- form, Ethambutole] |  |  |  |  |  |  |  |  | causes blindness in experimental animals, even at low dosages |
| CN1C(=O)C(OCC(O)CO)N=C(c2ccccc2)c2cc(Cl)ccc21 [31 (S)] | 10.30 | 0.38 |  | 0.80 | 1.0 | 0.42 |  | 6000 |  |
| CC1N=C(c2ccccc2)c2cc(Cl)ccc2N(C)C1=O (racemic) [26 (Rac.)] | 47.30 | 10.20 | 2.10 | 6.54 | 8.94 | 2.70 |  |  |  |
| O=C1Nc2ccc(Cl)cc2C(c2ccccc2)=N[C@H]1Cc1c[nH]c2ccccc12 [23 (S)] | 3.20 | 4.10 | 1.70 | 6.20 | 7.10 | 0.80 |  | 2300 |  |
| O=C1Nc2ccc(Cl)cc2C(c2ccccc2)=NC1O (stereo not drawn) [Oxazepam, 7-chloro-1,3-dihydro-3-hydroxy-5-phenyl-2H-1,4-benzodiazepine-2-one] |  |  |  | 0.62 |  |  |  | 3700 |  |
